Reference: paper PMC6097783, “β-N-Acetylglucosaminidase MthNAG from Myceliophthora thermophila C1, a thermostable enzyme for production of N-acetylglucosamine from chitin” (Applied Microbiology and Biotechnology, 2018)
Values belong to the molecule of their own block, whether it stands above or below them.

Columns and labels:
MthNAG [1] = target: T1, MthNAG (Thermothelomyces thermophilus, UniProt G2Q2L6); experiment: substrate inhibition kinetics, released GlcNAc by HPAEC; format: biochemical; conditions: citrate-phosphate buffer 0.1 M, pH 4.5, 50 °C
T1 construct: gene MYCTH_2294755; full-length GH20 secreted enzyme, 582-residue precursor with 21-residue signal peptide; homologously overexpressed in M. thermophila C1, purified by IEX and SEC, no tag told; most similar to XP_003658680 of strain ATCC 42464
T1 sequence (G2Q2L6 22-582): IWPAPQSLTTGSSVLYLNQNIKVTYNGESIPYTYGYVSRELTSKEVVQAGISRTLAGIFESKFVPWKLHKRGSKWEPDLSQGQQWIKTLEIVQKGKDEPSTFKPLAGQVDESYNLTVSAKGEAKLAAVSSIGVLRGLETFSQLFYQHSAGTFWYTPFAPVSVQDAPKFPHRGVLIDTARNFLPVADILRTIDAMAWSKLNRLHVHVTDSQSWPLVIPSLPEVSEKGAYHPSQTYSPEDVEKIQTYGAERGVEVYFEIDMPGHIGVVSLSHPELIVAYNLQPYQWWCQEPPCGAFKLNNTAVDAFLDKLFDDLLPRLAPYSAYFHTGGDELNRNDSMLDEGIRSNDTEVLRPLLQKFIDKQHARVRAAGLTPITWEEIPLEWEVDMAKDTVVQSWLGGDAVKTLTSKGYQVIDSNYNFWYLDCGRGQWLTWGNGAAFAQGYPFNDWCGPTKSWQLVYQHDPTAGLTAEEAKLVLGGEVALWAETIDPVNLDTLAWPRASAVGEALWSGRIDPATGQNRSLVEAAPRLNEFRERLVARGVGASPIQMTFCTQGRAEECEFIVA

MthNAG [2] = target: T1, MthNAG; experiment: substrate inhibition kinetics, released p-nitrophenol at […] nm; format: biochemical; conditions: citrate-phosphate buffer 0.1 M, pH 4, 50 °C
purified protein = substrate: CC(=O)N[C@H]1[C@H](Oc2ccc([N+](=O)[O-])cc2)O[C@H](CO)[C@@H](O)[C@@H]1O; experiment: purified protein; format: biochemical, Thermothelomyces thermophilus; conditions: citrate-phosphate buffer 0.1 M, pH 4, 50 °C

Ki (MthNAG [1]): 500 ± 110 µM
Molecule: CC(=O)N[C@H]1[C@H](O[C@H]2[C@H](O)[C@@H](NC(C)=O)C(O)O[C@@H]2CO)O[C@H](CO)[C@@H](O)[C@@H]1O (stereo partly shown) [(GlcNAc)2]

Ki (MthNAG [2]): 1960 ± 260 µM
Molecule: CC(=O)N[C@H]1[C@H](Oc2ccc([N+](=O)[O-])cc2)O[C@H](CO)[C@@H](O)[C@@H]1O [GlcNAc-pNP, 4-nitrophenyl-N-acetylglucosamine]

B1: MthNAG (Thermothelomyces thermophilus ATCC 42464) (protein)
chain: T1 sequence (G2Q2L6 22-582)
notes: full-length GH20 secreted enzyme, 582-residue precursor with 21-residue signal peptide; homologously overexpressed in M. thermophila C1, purified by IEX and SEC, no tag told; most similar to XP_003658680 of strain ATCC 42464
Km (purified protein): 60 ± 10 µM
kcat (purified protein): 14.0 ± 0.7 s⁻¹
